From PMC8270334, “Design, Sustainable Synthesis and Biological Evaluation of a Novel Dual α2A/5-HT7 Receptor Antagonist with Antidepressant-Like Properties” (Molecules, 2021)

Assays:
[1] = target: T1, human 5-HT7b receptor (Homo sapiens, UniProt P34969); assay: radioligand binding, [3H]-5-CT displacement at 5-HT7R in HEK293 cells; conditions: read-out: Ki [nM] ± SEM 5-HT7
T1 construct: expressed in transfected cells; host or cells: HEK293
Method: (§1) All experiments were performed using HEK293 cells stably expressing human 5-HT1A, 5-HT6, 5-HT7b, and D2L receptors or CHO-K1 cells with a plasmid containing the human 5-HT2A receptor coding sequence (PerkinElmer, Waltham, MA, USA), according to previously reported procedures. Cells were cultured in 150 cm^2 flasks and, after reaching a 90% confluence, were washed with PBS and the centrifugated (200 g) in PBS containing 0.1 mM EDTA and 1 mM dithiothreitol. Cell pellets were subsequently homogenized (in Ultra Turrax tissue homogenizer) and centrifugated twice (35,000× g for 15 min at 4 °C), with 15 min incubation at 37 °C between the centrifugations. All assays were incubated in dedicated buffers and in a total volume of 200 µL in 96-well microtitre plates for 1 h at 37 °C, except for 5-HT1AR and 5-HT2AR that was incubated for 1 h at room temperature. The process of equilibration is terminated by rapid filtration through Unifilter-96 (PerkinElmer) plates with a 96-well cell harvester and radioactivity retained on the filters was quantified on a Microbeta plate reader (PerkinElmer, USA). For displacement studies, the following assay samples containing the proper radioligand were used: 2.5 nM [^3H]-8-OH-DPAT (PerkinElmer, #NET929001MC) for 5-HT1AR; 1 nM [^3H]-ketanserin (PerkinElmer, #NET791250UC) for 5-HT2AR; 2 nM [^3H]-LSD (PerkinElmer, #NET638250UC) for 5-HT6R; and 0.8 nM [^3H]-5-CT (PerkinElmer, #NET1188U100UC) for 5-HT7R or 2.5 nM [^3H]-raclopride (PerkinElmer, #NET975001MC) for D2LR. Non-specific binding was determined using 10 μM 5-HT for 5-HT1AR and 5-HT7R, 20 μM mianserin for 5-HT2AR, 10 μM methiothepine for 5-HT6R, and 10 μM haloperidol for D2LR. […] Results were expressed as means of at least three separate experiments.

[2] = target: T2, human 5-HT1A receptor (Homo sapiens, UniProt P08908); assay: radioligand binding, [3H]-8-OH-DPAT displacement at 5-HT1AR in HEK293 cells; conditions: HEK-293 cells, ± SEM
T2 construct: expressed in transfected cells; host or cells: HEK293
T2 sequence (P08908 1-422): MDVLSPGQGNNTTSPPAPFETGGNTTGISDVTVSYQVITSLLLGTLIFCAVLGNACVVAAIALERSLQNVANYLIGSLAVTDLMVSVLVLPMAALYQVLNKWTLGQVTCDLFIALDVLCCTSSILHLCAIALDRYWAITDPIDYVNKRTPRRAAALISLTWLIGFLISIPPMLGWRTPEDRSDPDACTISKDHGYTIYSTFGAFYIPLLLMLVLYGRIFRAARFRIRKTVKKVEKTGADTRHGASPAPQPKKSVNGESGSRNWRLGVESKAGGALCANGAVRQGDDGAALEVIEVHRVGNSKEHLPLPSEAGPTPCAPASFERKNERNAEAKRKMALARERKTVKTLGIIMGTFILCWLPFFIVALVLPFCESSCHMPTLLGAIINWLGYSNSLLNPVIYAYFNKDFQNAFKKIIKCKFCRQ
Method: as §1

[3] = target: T3, human 5-HT2A receptor (Homo sapiens, UniProt P28223); assay: radioligand binding, [3H]-ketanserin displacement at 5-HT2AR in CHO-K1 cells; conditions: ± SEM; footnote HEK-293 cells, method CHO-K1 cells
T3 construct: host or cells: CHO-K1
Method: as §1

[4] = target: T4, human 5-HT6 receptor (Homo sapiens, UniProt P50406); assay: radioligand binding, [3H]-LSD displacement at 5-HT6R in HEK293 cells; conditions: HEK-293 cells, ± SEM
T4 construct: expressed in transfected cells; host or cells: HEK293
Method: as §1

[5] = target: T5, human D2L receptor (Homo sapiens, UniProt P14416); assay: radioligand binding, [3H]-raclopride displacement at D2LR in HEK293 cells; conditions: HEK-293 cells, ± SEM; read-out: Ki [nM] D2
T5 construct: expressed in transfected cells; host or cells: HEK293
Method: as §1

[6] = target: T6, α2A-adrenergic receptor (Homo sapiens, UniProt P08913); assay: intrinsic activity (antagonist) assay, Tango ADRA2A-bla U2OS DA cells, FRET; type: cell-based; conditions: for Kb: antagonist, ADRA2A-bla U2OS DA cells, ± SEM, two independent experiments; for functional selectivity for α2A-AR over α2B-AR subtype: from Kb values α2A vs α2B
T6 construct: host or cells: U2OS (Tango ADRA2A-bla U2OS DA)
T6 sequence (P08913 1-465): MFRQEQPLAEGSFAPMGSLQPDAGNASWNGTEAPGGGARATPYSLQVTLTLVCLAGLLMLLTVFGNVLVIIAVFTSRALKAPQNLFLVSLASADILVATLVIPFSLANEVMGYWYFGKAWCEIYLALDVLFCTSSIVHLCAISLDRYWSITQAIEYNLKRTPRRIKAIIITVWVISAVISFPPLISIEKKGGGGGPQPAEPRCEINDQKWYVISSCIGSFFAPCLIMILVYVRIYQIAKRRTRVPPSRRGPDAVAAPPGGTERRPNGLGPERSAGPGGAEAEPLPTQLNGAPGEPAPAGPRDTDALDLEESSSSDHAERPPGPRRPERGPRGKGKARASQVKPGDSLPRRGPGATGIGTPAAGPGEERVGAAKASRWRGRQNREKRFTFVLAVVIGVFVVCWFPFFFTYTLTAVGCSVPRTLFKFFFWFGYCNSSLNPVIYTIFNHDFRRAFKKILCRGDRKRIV
Method: Intrinsic activity assays for α2A-adrenergic receptor were performed according to the instructions of the manufacturer of the assay kit containing the ready to use cells with stable expression of the α2A-adrenoceptor (Invitrogen, Life Technologies, Waltham, MA, USA). Tango™ ADRA2A-bla U2OS DA cells (10,000 cells/well) were plated in a 384-well format and incubated for 20 h. […] Cells were then loaded with LiveBLAzer™-FRET B/G substrate for 2 h.

[7] = system: Albino Swiss mice; assay: forced swim test; type: in vivo; conditions: ip; for shortening of immobility in FST in comparison to control: dose range 1–8 mg/kg; for shortening of immobility in FST in comparison to control / active dose in FST (antidepressant-like effect): 30 min before test
Method: Adult male Albino Swiss mice (CD-1, 8 weeks old, 25–30 g: Jagiellonian University Medical College, Krakow, Poland) were used in the study. Animals were housed in groups of 8 in a transparent plastic cage (382 × 220 × 150 mm) at room temperature (22 ± 2 °C), on a 12 h light/dark cycle with ad libitum access to food and water. Mice were handled for one week before starting the experimental procedures. The separate groups of animals were used in the forced swim test and in the locomotor studies. All studies were approved by the Institutional Animal Care and Ethics Committee of the Jagiellonian University (approval no.: 80/2015). […] Tested compounds were dissolved with 1% Tween 80. […] The control animals were given ip injections of the 2% DMSO in 1% Tween 80 (vehicle). The volume of vehicle or drug solutions was 10 mL/kg. The experiment was performed on mice according to the method previously described. Mice were forced to swim individually in the glass cylinders (height 25 cm, diameter 10 cm) filled with water at 24 ± 1 °C to a depth of 10 cm and left there for 6 min. Following a 2 min habituation period, total time spent immobile was recorded over the next 4 min. The animal was regarded as immobile when it remained floating passively in the water, making only small movements to keep its head above the water.

T1 sequence (P34969 1-432): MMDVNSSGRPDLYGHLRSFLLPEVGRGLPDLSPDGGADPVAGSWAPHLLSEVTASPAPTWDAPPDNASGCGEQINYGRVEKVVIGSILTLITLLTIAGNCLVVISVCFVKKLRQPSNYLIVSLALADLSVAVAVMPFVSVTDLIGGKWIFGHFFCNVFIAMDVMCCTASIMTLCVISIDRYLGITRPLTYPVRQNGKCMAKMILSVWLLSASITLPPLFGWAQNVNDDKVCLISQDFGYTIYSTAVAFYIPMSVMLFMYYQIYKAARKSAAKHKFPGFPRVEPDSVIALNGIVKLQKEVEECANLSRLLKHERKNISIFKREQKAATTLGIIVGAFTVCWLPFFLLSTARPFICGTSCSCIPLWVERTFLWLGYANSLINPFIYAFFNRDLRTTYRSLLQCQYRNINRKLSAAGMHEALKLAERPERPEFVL
T5 sequence (P14416 whole entry): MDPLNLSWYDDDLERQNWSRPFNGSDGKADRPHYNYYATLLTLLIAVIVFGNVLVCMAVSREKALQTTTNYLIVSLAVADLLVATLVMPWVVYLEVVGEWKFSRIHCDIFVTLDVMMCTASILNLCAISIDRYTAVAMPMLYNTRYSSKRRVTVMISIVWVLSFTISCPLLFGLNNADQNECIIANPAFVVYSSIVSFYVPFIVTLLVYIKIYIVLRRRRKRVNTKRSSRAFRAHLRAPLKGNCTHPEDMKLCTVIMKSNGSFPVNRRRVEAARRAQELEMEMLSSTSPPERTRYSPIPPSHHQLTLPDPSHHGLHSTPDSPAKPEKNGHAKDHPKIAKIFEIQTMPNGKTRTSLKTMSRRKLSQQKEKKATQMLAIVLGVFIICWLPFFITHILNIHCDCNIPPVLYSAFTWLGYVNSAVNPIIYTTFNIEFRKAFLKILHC
T4 sequence (P50406 whole entry): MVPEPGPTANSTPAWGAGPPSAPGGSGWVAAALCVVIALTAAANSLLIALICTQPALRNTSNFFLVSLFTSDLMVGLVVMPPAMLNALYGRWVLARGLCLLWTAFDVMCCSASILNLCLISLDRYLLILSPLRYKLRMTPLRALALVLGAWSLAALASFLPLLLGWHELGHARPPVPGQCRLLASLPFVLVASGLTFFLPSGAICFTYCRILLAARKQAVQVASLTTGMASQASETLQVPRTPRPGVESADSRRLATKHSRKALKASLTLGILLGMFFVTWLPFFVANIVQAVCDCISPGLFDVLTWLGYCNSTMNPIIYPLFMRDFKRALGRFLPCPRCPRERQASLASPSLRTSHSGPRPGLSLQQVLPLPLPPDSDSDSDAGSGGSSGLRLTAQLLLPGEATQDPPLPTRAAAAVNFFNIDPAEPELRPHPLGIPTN
T3 sequence (P28223 whole entry): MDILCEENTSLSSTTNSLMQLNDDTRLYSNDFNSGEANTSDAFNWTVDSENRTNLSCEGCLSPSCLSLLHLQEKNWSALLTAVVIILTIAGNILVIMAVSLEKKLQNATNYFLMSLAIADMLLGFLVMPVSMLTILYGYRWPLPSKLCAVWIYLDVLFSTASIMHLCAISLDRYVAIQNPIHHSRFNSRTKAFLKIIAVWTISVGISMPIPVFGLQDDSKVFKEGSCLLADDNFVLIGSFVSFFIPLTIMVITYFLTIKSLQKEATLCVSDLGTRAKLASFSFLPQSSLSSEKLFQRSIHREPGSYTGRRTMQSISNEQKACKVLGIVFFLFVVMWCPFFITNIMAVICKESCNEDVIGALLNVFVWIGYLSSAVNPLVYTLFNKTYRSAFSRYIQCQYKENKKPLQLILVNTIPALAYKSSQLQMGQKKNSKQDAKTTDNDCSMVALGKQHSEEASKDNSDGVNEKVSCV

| SMILES | Ki [1] | Ki [2] | Ki [3] | Ki [4] | Ki [5] | Kb [6] | functional selectivity for α2A-AR over α2B-AR subtype [6] | shortening of immobility in FST in comparison to control [7] | active dose in FST (antidepressant-like effect) [7] | effect in the FST ([7]; doses of 4 and 8 mg/kg) |
| --- | --- | --- | --- | --- | --- | --- | --- | --- | --- | --- |
| CC1(C)Cc2cccc(OCCN3CCC(NS(=O)(=O)c4ccc(F)cc4)CC3)c2O1 [Compound 6, 4-Fluoro-N-{1-[2-(2,2-dimethyl-2,3-dihydrobenzofuran-7-yloxy)ethyl]piperidin-4-yl} benzenesulfonamide] | 35 ± 22 nM | 221 ± 25 nM | 538 ± 38 nM | 839 ± 70 nM | 327 ± 29 nM | 12 ± 4 nM | up to seven | about 25% | 8 mg/kg |  |
| CC1(C)Cc2cccc(OCCN3CCC(NS(=O)(=O)c4cc(Cl)ccc4F)CC3)c2O1 [Compound 8, 5-Chloro-2-fluoro-N-{1-[2-(2,2-dimethyl-2,3-dihydrobenzofuran-7-yloxy)ethyl]piperidin-4-yl}benzenesulfonamide] | 30 ± 11 nM | 260 ± 29 nM | 1420 ± 98 nM | 873 ± 91 nM | 388 ± 37 nM | 40 ± 11 nM | four | about 25% | 4 mg/kg |  |
| CC1(C)Cc2cccc(OCCN3CCC(NS(=O)(=O)c4cncc5ccccc45)CC3)c2O1 [Compound 13, 4-Isoquinoline-N-{1-[2-(2,2-dimethyl-2,3-dihydrobenzofuran-7-yloxy)ethyl]piperidin-4-yl}sulfonamide] | 91 ± 25 nM | 260 ± 18 nM | 1420 ± 105 nM | 1120 ± 114 nM | 326 ± 25 nM | 31 ± 8 nM | did not show any preference | about 25% | 1 mg/kg | lack of pharmacological effect |
